Here are results for four molecules from publication PMC8550792, “Evolution of kinase polypharmacology across HSP90 drug discovery” (Cell Chemical Biology, 2021).

What all share (test): biochemical
Common to all, as to format: biochemical

The target of test [1] is T1, 382 unique human kinases (Homo sapiens, UniProt Q99759).
T1 construct: purchased Reaction Biology (HotSpot contract assay)
T1 sequence (Q99759 1-626): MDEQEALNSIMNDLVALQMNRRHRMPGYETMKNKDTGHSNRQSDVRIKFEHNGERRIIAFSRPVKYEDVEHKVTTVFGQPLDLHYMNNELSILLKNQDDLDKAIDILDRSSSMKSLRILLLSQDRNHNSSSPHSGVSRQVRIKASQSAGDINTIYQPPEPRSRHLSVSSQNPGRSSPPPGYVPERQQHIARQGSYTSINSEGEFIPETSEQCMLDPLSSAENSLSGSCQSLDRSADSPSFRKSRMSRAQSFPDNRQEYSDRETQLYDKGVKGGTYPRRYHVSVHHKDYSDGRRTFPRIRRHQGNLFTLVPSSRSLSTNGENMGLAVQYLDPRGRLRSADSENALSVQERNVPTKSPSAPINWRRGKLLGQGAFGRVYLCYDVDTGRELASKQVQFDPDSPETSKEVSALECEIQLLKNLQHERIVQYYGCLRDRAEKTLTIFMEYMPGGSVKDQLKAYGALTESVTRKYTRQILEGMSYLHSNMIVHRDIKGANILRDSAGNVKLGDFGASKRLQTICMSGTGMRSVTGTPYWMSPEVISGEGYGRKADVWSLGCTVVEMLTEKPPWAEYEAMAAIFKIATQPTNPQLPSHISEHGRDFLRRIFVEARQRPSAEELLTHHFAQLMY
Conditions: MEKK3, compound at 10 uM, duplicate values; for remaining activity at 10 µM: read-out: % Enzyme Activity (relative to DMSO controls).

Test [2] has as its target T2, 382 unique human kinases (Homo sapiens, UniProt P43403).
T2 construct: purchased Reaction Biology (HotSpot contract assay)
T2 sequence (P43403 1-619): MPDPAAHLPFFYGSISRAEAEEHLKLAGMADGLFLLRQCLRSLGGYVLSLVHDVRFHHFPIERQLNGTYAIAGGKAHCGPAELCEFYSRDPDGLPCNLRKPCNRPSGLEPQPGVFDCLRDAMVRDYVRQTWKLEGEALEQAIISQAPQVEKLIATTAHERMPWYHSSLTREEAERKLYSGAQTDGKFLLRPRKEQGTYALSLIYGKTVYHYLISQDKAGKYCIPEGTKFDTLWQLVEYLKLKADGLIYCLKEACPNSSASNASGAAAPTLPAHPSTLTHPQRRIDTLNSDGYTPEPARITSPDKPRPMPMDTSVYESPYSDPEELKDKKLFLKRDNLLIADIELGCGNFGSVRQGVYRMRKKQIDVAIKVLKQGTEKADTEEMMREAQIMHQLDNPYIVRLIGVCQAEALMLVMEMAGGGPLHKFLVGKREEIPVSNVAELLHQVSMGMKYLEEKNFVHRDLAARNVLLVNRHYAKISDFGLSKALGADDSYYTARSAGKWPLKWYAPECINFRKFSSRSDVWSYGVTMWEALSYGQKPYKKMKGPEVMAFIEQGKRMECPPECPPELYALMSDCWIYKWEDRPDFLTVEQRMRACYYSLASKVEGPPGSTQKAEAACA
The settings on record: ZAP70, compound at 10 uM, duplicate values; for remaining activity at 10 µM: read-out: % Enzyme Activity (relative to DMSO controls).

Test [3] has as its target T3, 382 unique human kinases (Homo sapiens, UniProt P07949, V804E).
T3 construct: purchased Reaction Biology (HotSpot contract assay)
The settings on record: RET (V804E), 10 uM; for remaining activity at 10 µM: read-out: % Enzyme Activity (relative to DMSO controls).

The target in test [4] is T4, 382 unique human kinases (Homo sapiens, UniProt Q8IYT8).
T4 construct: purchased Reaction Biology (HotSpot contract assay)
T4 sequence (Q8IYT8 1-1036): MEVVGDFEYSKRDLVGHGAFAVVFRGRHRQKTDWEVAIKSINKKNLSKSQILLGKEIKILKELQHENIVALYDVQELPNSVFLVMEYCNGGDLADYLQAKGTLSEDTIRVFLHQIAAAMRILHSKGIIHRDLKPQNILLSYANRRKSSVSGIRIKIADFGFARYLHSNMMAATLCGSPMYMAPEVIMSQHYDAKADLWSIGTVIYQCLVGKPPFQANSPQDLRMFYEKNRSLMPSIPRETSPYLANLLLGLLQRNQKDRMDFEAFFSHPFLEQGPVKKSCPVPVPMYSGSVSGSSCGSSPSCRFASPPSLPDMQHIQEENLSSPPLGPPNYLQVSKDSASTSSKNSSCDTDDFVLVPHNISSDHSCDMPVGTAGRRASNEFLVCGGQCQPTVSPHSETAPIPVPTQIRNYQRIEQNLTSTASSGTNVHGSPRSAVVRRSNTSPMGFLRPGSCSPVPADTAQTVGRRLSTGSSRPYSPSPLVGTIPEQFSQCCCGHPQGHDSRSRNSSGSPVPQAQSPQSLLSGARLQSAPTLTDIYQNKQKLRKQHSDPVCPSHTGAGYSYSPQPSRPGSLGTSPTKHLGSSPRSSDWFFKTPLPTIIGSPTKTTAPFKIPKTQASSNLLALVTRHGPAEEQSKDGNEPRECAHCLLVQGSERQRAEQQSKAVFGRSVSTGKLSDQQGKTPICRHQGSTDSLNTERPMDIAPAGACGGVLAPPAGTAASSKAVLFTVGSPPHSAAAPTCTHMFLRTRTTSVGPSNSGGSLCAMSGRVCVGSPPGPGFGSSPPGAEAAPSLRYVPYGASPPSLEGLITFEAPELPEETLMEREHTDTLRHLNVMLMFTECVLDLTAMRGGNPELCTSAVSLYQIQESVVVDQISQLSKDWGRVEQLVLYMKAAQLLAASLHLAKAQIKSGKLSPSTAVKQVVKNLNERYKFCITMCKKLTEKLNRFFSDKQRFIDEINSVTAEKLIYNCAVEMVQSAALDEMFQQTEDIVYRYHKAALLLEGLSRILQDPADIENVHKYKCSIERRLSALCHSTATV
Conditions: ULK2, 10 uM; for remaining activity at 10 µM: read-out: % Enzyme Activity (relative to DMSO controls).

The target in test [5] is T5, 382 unique human kinases (Homo sapiens, UniProt O94921).
T5 construct: purchased Reaction Biology (HotSpot contract assay)
T5 sequence (O94921 whole entry): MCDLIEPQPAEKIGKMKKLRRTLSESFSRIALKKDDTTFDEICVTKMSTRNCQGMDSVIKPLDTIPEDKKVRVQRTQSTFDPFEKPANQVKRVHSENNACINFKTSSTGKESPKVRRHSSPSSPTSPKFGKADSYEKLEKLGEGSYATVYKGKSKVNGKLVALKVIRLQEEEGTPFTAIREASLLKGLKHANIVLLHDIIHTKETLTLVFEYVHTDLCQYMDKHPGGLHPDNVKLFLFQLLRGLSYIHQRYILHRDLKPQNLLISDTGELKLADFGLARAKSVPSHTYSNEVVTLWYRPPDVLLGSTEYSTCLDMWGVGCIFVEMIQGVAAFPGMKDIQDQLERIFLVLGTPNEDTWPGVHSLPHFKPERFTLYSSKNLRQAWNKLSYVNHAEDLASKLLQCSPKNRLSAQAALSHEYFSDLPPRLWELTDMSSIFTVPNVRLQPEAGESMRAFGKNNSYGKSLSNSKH
The settings on record: CDK14/cyclin Y (PFTK1), 10 uM; for remaining activity at 10 µM: read-out: % Enzyme Activity (relative to DMSO controls).

In test [6] the target is T6, 382 unique human kinases (Homo sapiens, UniProt Q86YV6).
T6 construct: purchased Reaction Biology (HotSpot contract assay)
T6 sequence (Q86YV6 1-388): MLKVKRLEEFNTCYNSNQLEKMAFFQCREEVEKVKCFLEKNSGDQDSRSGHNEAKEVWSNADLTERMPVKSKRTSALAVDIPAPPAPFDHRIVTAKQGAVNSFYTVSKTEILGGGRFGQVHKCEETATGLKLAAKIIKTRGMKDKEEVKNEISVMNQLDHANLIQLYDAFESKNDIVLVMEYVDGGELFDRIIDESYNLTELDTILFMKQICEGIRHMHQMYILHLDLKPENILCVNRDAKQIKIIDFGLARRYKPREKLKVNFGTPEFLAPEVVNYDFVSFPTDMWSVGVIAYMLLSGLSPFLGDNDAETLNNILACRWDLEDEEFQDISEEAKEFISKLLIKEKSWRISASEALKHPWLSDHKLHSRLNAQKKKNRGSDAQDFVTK
Conditions: MYLK4, [ATP] 50 µM, compound 10 uM; for remaining activity at 10 µM: read-out: % Enzyme Activity (relative to DMSO controls).

T3 sequence (P07949 29-1114 V804E): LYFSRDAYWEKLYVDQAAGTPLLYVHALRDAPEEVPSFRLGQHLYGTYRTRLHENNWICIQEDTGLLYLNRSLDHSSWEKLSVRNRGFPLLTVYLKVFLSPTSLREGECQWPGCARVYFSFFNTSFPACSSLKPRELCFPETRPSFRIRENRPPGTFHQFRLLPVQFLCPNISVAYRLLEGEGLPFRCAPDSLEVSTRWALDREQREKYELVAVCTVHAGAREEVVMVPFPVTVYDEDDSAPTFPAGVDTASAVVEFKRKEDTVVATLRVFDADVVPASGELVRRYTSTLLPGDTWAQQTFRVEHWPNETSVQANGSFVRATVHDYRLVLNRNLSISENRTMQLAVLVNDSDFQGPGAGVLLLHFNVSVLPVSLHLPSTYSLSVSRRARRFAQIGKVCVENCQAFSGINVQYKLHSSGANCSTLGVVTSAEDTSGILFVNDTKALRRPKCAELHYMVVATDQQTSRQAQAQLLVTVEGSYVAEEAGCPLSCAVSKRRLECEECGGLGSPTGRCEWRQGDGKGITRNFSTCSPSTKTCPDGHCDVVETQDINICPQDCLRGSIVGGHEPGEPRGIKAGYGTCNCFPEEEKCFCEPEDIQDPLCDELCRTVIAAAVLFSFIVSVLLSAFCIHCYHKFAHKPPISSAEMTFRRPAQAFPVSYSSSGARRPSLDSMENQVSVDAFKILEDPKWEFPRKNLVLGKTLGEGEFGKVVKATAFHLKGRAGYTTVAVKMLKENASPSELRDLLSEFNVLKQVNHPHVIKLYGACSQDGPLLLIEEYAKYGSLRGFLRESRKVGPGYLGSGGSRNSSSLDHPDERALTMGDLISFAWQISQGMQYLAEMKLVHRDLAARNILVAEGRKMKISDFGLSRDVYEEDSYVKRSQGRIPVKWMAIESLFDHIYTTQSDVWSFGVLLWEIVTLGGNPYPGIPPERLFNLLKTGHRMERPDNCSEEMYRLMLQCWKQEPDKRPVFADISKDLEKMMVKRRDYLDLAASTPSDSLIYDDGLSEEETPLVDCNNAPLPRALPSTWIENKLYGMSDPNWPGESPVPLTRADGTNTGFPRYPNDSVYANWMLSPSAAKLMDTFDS

Regarding `CC(C)c1cc(-c2n[nH]c(=O)n2-c2ccc3c(ccn3C)c2)c(O)cc1O` [Ganetespib (STA9090)], the remaining activity at 10 µM at 382 unique human kinases [1] worked out at 106%; at 382 unique human kinases [2], 108%.
For the molecule `CC(C)c1cc(-c2n[nH]c(=O)n2-c2ccc3c(ccn3C)c2)c(O)cc1O` [Ganetespib], the remaining activity at 10 µM is 92.2% at 382 unique human kinases [3], 107% at 382 unique human kinases [4], 93.1% on 382 unique human kinases [5] and 60.1% at 382 unique human kinases [6].
On to `CCNC(=O)c1noc(-c2cc(C(C)C)c(O)cc2O)c1-c1ccc(CN2CCOCC2)cc1` [Luminespib (AUY-922)], for which, at 382 unique human kinases [1], the “% Enzyme Activity (relative to DMSO controls)” value came out at 120.79% and the remaining activity at 10 µM stood at 122%. Also, at 382 unique human kinases [2], the “% Enzyme Activity (relative to DMSO controls)” value worked out at 104.43% and the remaining activity at 10 µM is 105%.
For the molecule `CCNC(=O)c1noc(-c2cc(C(C)C)c(O)cc2O)c1-c1ccc(CN2CCOCC2)cc1` [Luminespib], the “% Enzyme Activity (relative to DMSO controls)” value on 382 unique human kinases [3] is recorded as 91.98%; on 382 unique human kinases [4] it was 104.48%; at 382 unique human kinases [5] it was 102.69%; on 382 unique human kinases [6], 95.56%. Besides, the remaining activity at 10 µM at 382 unique human kinases [3] was 93.3%; on 382 unique human kinases [4], 107%; at 382 unique human kinases [5], 103%; on 382 unique human kinases [6], 96.7%.
